Read-outs that look alike come from different tables or passages of the source.
Tests used:
[1] = test system: Epiderm™ Human Tissue Model (EPI-200); assay: MTT tissue viability assay (ET-50 protocol) for skin irritancy
Procedure: (§1) Mitigation of skin irritancy induced by sodium dodecyl sulfate (SDS) surfactant dosed with the polymer of Example 56 is assessed in the Epiderm™ Human Tissue Model (EPI-200) bioassay conducted by MatTek Corporation, Ashland, Mass. The MatTek bioassay utilizes human derived epidermal keratinocytes (NHEK) which have been cultured to form a multilayered, highly differentiated model of the human epidermis.
(§2) The MTT tissue viability assay measures the NAD(P)H dependent microsomal enzyme reduction of MTT (and to a lesser extent, the succinate dehydrogenase reduction of MTT) after exposure to a treated skin culture test sample for various exposure times. The duration of exposure resulting in a 50% decrease in MTT conversion in test formulation treated EpiDerm™ cultures, relative to control cultures, is determined (ET-50).
(§3) A SDS surfactant/polymer test formulation is formulated from the components set forth in Table 10 and evaluated for irritancy potential using the MTT viability assay. Test samples containing neat SDS surfactant (no polymer) are formulated for comparative purposes.
(§4) Skin tissue culture inserts (Cat. No. EPI-200) are pre-incubated in the wells of 6-well plates containing 0.9 ml of MatTek assay medium (Cat. No. EPI-100-ASY) for 1 hr. at 37° C. in a humidified atmosphere of 5% CO2 in air. The 6-well plates containing the tissue culture inserts are removed from the incubator and the assay media is aspirated from the wells and replaced by an additional aliquot of 0.9 ml of pre-warmed (37° C.) assay media. For each exposure time wells are then dosed (2 repetitions) with 100 μl of the test formulations set forth in Table 10 (3 tissue culture wells are dosed with 100 μl ultra-pure water as a negative control for each of the test candidates). In addition, 100 μl of a positive control formulation (1% Triton X-100 in ultrapure water) is dosed into tissue culture wells (3 repetitions for each exposure time), as well as 3 repetitions of ultrapure water as a negative control. The exposure times of the test formulations, negative control and positive control are set forth below.
(§5) MTT assay plates are prepped by preparing a 24-well plate by adding 300 μl of MTT reagent solution to an appropriate number of wells to accommodate the test. The MTT reagent is utilized at a concentration of 1 mg/ml of MTT diluted in Dulbecco's Modified Eagle Medium (DMEM). The MTT/DMEM solution is centrifuged and decanted to remove any precipitate before use.
(§6) After exposure times of 60 (1 hr.), 120 (2 hrs.) and 210 (3.5 hrs.) minutes to the test solutions, the tissue cultures are removed from the incubator and thoroughly rinsed (2 times) with Dulbecco's phosphate buffered saline (DPBS) to remove the test material. The negative control is exposed for 4 hours and the positive control is exposed for time periods of 4, 6, 8, and 10 hours. Any remaining rinse media is decanted from the top of the tissue cultures. Each tissue culture insert is transferred to an appropriately labeled well of the 24-well plate containing the MTT reagent solution and placed back in the incubator. After 30 minutes reaction with the MTT reagent, the tissue cultures are removed from the incubator. Each tissue culture insert is removed from its well and the bottom is gently blotted with a lab tissue. The inserts are immersed into a labeled 24-well extraction plate containing 2 ml of isopropanol extractant solution. […]

[2] = as above; settings: human
Procedure: as §1, §2, §3, §4, §5, §6

Row | Compound | ET-50 (exposure time which reduces tissue viability to 50%) [1] | viability at 1 hr [2] | viability at 2 hr [2] | viability at 3.5 hr [2] | ET-50 (exposure time which reduces tissue viability to 50%) ([1]; interpolated between exposure times that bracket 50% viability)
1 | Triton X-100 [1% Triton X-100] | 5.93 h | – | – | – | –
2 | CCCCCCCCCCCCOS(=O)(=O)[O-].[Na+] [Neat Surfactant, sodium dodecyl sulfate] | – | 72% | 28% | 19.6% | 1.41 h

From patent publication US20150335565A1, “IRRITATION MITIGATING POLYMERS AND USES THEREFOR” (LUBRIZOL ADVANCED MATERIALS, INC., priority 2012, published 2015)
